According to patent US8063225B2, “Tricyclic compound derivatives useful in the treatment of neoplastic diseases, inflammatory disorders and immunomodulatory disorders” (Chembridge Corporation, priority 2006, dated 2011):

How the values were obtained:
Karpas-299 = experiment: Cell proliferation inhibition, Cell Titer-Glo, Karpas-299; format: cell-based; conditions: Homo sapiens; cell proliferation assay, Karpas-299 cells
Summary of the method: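 Karpas 299 cells were seeded into white, clear-bottomed 384-well culture plates at 2500-5000 cells per well and exposed to serial dilutions of test compounds for about 3 days. Viable cell numbers were then measured with the Cell Titer-Glo Luminescent Cell Viability Assay (Promega), which detects total ATP, and IC50 values for proliferation inhibition were derived.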

K562 = experiment: Cell proliferation inhibition, Cell Titer-Glo, K562; format: cell-based; conditions: Homo sapiens; cell proliferation assay, K562 cells
Summary of the method: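 K562 cells were seeded at 2500-5000 cells per well in white, clear-bottomed 384-well culture plates and treated with dilutions of test compounds for typically 3 days. Viable cells were quantified with the Cell Titer-Glo Luminescent Cell Viability Assay (Promega), which measures total ATP, read on a luminescence plate reader to derive IC50 values for proliferation inhibition.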

Jak2 = biological target: T1, Jak2 (Homo sapiens, UniProt O60674); experiment: Tyrosine kinase assay (Kinase-Glo or AlphaScreen), Jak2; conditions: biochemical tyrosine kinase assay
T1 construct: 6×His- or GST-tagged kinase domain fragments of the corresponding RTKs expressed in baculovirus system; host or cells: baculovirus system
Summary of the method: (§1)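 Test compounds, eight concentrations from 1 nM to 20 μM, were incubated with tagged recombinant kinase domain, poly(Glu-Tyr, 4:1) and 10 μM ATP. After 60 minutes at 37° C, Kinase-Glo luminescence quantified unconsumed ATP.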

Alk = biological target: T2, Alk (Homo sapiens, UniProt Q9UM73); experiment: Tyrosine kinase assay (Kinase-Glo or AlphaScreen), Alk; conditions: biochemical tyrosine kinase assay
T2 construct: 6×His- or GST-tagged kinase domain fragments of the corresponding RTKs expressed in baculovirus system; host or cells: baculovirus system
Summary of the method: as §1

Ba/F3 = experiment: Cell proliferation inhibition, Cell Titer-Glo, Ba/F3; format: cell-based; conditions: Mus musculus, BaF3; cell proliferation assay, Ba/F3 cells
Summary of the method: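 Ba/F3 cells were seeded at 2500-5000 cells per well in white, clear-bottomed 384-well culture plates and exposed to serial dilutions of test compounds for 3 days. Cell Titer-Glo Luminescent Cell Viability Assay (Promega) reagent, which measures total ATP as an indicator of metabolic activity, was added. Luminescence was read on a multiwell plate reader to derive IC50 values for inhibition of proliferation.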

InsR = biological target: T3, InsR (Homo sapiens, UniProt P06213); experiment: Tyrosine kinase assay (Kinase-Glo or AlphaScreen), InsR; conditions: biochemical tyrosine kinase assay
T3 construct: 6×His- or GST-tagged kinase domain fragments of the corresponding RTKs expressed in baculovirus system; host or cells: baculovirus system
Summary of the method: as §1

IGF1R tyrosine kinase = biological target: T4, IGF1R tyrosine kinase (Homo sapiens, UniProt P08069); experiment: IGF1R tyrosine kinase assay (Kinase-Glo ATP depletion or PT66/PT100 AlphaScreen); conditions: biochemical tyrosine kinase assay
T4 construct: 6×His- or GST-tagged kinase domain fragments of the corresponding RTKs expressed in baculovirus system; host or cells: baculovirus system
Summary of the method: as §1

H929 (multiple myeloma) = experiment: Cell proliferation inhibition, Cell Titer-Glo, H929; format: cell-based; conditions: Homo sapiens, NCI-H929; cell proliferation assay, H929 cells
Protocol: IGF1R and other tyrosine kinase inhibitors can inhibit the proliferation of certain cancer cell lines indicating their possible therapeutic utility for treating the corresponding cancer types. Cancer cell lines of interest and control normal lines, including CHO, HEK293, BA/F3, MM1, H929, COLO205, PC3, DU145, MCF7, Panc1, ACHN, Hep G2, H460, K562, TT, U87-G, CAOV-3, SK-MEL5, Karpas 299, are plated in white, clear-bottomed 384-well cell culture plates at 2500-5000 cells per well and supplied with dilutions of tested compounds After a desired period of time (typically 3 days), the number of viable cells is quantitated by using Cell Titer-Glo Luminescent Cell Viability Assay (Promega), a cell proliferation assay system based on detection of total amount of ATP present as a measure of cell metabolic activity. The plated cells are mixed with the Cell Titer-Glo developing reagent and counted in a luminescence multiwell plate reader according to the standard manufacturer's protocol to generate IC50 curves for cell proliferation inhibition.
IGF1R and other tyrosine kinase inhibitors can inhibit the proliferation of certain cancer cell lines indicating their possible therapeutic utility for treating the corresponding cancer types. Cancer cell lines of interest and control normal lines, including CHO, HEK293, BA/F3, COLO205, PC3, DU145, MCF7, Panc1, ACHN, Hep G2, H460, K562, TT, U87-MG, CAOV-3, SK-MEL5, Karpas 299 and human multiple myeloma cell lines H929, MM1s, MM1r, UTMC2, CPM2, KMS11, My5, KMS12PE, My7, JJN3, KMS18, U266, SKMM2, RPMI-8226 are plated in white, clear-bottomed 384-well cell culture plates at 2500-5000 cells per well and supplied with dilutions of tested compounds After a desired period of time (typically 3 days), the number of viable cells is quantitated by using Cell Titer-Glo Luminescent Cell Viability Assay (Promega), a cell proliferation assay system based on detection of total amount of ATP present as a measure of cell metabolic activity. The plated cells are mixed with the Cell Titer-Glo developing reagent and counted in a luminescence multiwell plate reader according to the standard manufacturer's protocol to generate IC50 curves for cell proliferation inhibition. Results are typically reported as percent of growth (% viability =(OD72h(compound)−ODday0))/(OD72h(no compound)−ODday0). Alternatively, viable cells are quantitated by using the conventional colorimetric MTT assay. The MTT assay is based on the cleavage of the yellow tetrazolium salt MTT to purple formazan crystal by metabolic active cells. The formazan is then solubilized, and the concentration determined by optical density at 570 nm. The cells plated and incubated with a compound as described above are supplemented with the solution of MTT and incubated for 2-3 hours. The growth medium is removed and dimethyl sulfoxide is added into each well to dissolve the formazan. The absorbance is measured on an ELISA plate reader with a test wavelength of 570 nm and a background subtraction wavelength of 630 nm to obtain sample signal (OD570-OD630). […] The results are reported in terms of IC50 value for a particular compound and a cell line in the standard 3-day proliferation assay using Cell Titer-Glo. […] The results are reported in terms of IC50 value for a particular compound and a cell line in the standard 3-day proliferation assay using MTT assay.

T4 sequence (P08069 999-1274 limits assumed): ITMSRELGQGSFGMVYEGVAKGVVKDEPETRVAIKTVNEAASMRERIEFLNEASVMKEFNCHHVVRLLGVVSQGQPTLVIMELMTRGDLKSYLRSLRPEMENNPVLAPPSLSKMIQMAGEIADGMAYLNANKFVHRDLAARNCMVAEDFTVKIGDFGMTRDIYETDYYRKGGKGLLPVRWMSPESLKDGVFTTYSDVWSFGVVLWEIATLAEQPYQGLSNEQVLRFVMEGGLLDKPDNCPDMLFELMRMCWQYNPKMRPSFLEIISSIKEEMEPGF
T2 sequence (Q9UM73 1116-1392 limits assumed, species assumed): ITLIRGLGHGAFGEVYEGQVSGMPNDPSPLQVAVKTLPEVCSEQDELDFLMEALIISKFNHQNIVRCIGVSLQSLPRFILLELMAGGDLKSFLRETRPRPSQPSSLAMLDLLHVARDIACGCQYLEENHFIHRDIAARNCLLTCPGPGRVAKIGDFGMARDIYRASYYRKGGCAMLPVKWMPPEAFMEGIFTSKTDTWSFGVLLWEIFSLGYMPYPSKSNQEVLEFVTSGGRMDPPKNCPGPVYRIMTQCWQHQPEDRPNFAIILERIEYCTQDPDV
T1 sequence (O60674 849-1124 limits assumed, species assumed): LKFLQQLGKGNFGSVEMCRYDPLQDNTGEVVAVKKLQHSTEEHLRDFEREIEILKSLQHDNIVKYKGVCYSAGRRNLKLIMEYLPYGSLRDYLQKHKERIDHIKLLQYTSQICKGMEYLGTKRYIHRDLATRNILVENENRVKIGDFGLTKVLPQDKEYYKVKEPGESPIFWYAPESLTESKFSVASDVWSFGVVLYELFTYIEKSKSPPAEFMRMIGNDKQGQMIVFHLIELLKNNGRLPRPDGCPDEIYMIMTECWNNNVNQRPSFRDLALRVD
T3 sequence (P06213 1023-1298 limits assumed, species assumed): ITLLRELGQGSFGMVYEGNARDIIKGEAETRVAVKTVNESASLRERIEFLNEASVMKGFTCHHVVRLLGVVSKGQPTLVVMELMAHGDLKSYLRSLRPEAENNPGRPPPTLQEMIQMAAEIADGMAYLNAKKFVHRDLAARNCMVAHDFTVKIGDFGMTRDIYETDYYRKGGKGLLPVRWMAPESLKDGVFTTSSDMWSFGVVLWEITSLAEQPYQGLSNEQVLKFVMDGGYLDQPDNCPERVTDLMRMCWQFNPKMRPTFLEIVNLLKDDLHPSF

IC50 (Karpas-299) [µM] | IC50 (K562) [µM] | IC50 (Jak2) [µM] | IC50 (Alk) [µM] | IC50 (Ba/F3) [µM] | IC50 (InsR) [µM] | IC50 (IGF1R tyrosine kinase) [µM] | IC50 (H929 (multiple myeloma)) [µM] | SMILES
5 to 15 | > 15 | 0.5 to 5 | 0.5 to 5 | > 15 | < 0.5 | < 0.5 | > 15 | Cc1ccc(OC[C@H](O)CNc2cc[nH]c(=O)c2-c2nc3cc4c(cc3[nH]2)C(=O)N(CC2CCN(CCO)CC2)C4=O)c(C)c1 [compound 118]
> 15 | > 15 | 0.5 to 5 | 0.5 to 5 | > 15 | < 0.5 | < 0.5 | 5 to 15 | O=C1c2cc3nc(-c4c(NC[C@@H](O)c5cccc(Cl)c5)cc[nH]c4=O)[nH]c3cc2C(=O)N1CCCN1CCCC1 [compound 35]
> 15 | > 15 | 0.5 to 5 | 0.5 to 5 | > 15 | < 0.5 | < 0.5 | > 15 | Cc1ccc(OC[C@H](O)CNc2cc[nH]c(=O)c2-c2nc3cc4c(cc3[nH]2)C(=O)N(CCCN2CCCC2)C4=O)c2c1CCC2 [compound 114]
0.5 to 5 | 5 to 15 | 5 to 15 | 5 to 15 | 0.5 to 5 | 0.5 to 5 | 0.5 to 5 | 5 to 15 | COc1ccccc1OCC(O)CNc1cc[nH]c(=O)c1-c1nc2cc3c(cc2[nH]1)C(=O)N(C1CCN(C)CC1)C3=O (centres unmarked) [compound 41]
> 15 | > 15 | 0.5 to 5 | < 0.5 | > 15 | 0.5 to 5 | 0.5 to 5 | > 15 | COc1ccc2c(ccn2C[C@H](O)CNc2cc[nH]c(=O)c2-c2nc3cc4c(cc3[nH]2)C(=O)N(C2CCN(C)CC2)C4=O)c1 [compound 113]
0.5 to 5 | 5 to 15 | 0.5 to 5 | 0.5 to 5 | 5 to 15 | 0.5 to 5 | 0.5 to 5 | 5 to 15 | CN1CCC(N2C(=O)c3cc4nc(-c5c(NCCc6c[nH]cn6)cc[nH]c5=O)[nH]c4cc3C2=O)CC1 [compound 4]
0.5 to 5 | 0.5 to 5 | 0.5 to 5 | > 15 | 5 to 15 | 5 to 15 | 5 to 15 | 5 to 15 | COc1cc(C#N)ccc1OC[C@H](O)CNc1ccnc(O)c1-c1nc2cc3c(cc2[nH]1)C(=O)N(C1CCN(C)CC1)C3=O [compound 90]
0.5 to 5 | 0.5 to 5 | 0.5 to 5 | 0.5 to 5 | 0.5 to 5 | 0.5 to 5 | 0.5 to 5 |  | CN1CCC(N2C(=O)c3cc4nc(-c5c(NC[C@@H](O)COc6cccc(Cl)c6)ccnc5O)[nH]c4cc3C2=O)CC1 [compound 75]
> 15 | > 15 | 0.5 to 5 | 5 to 15 | > 15 | 5 to 15 | 5 to 15 |  | CN1CCC(N2C(=O)c3cc4nc(-c5c(NC[C@@H](O)COc6cccnc6)ccnc5O)[nH]c4cc3C2=O)CC1 [compound 70]
5 to 15 | 5 to 15 | 0.5 to 5 | 0.5 to 5 | 0.5 to 5 | 0.5 to 5 | 0.5 to 5 |  | COc1cc(F)ccc1OC[C@H](O)CNc1ccnc(O)c1-c1nc2cc3c(cc2[nH]1)C(=O)N(C1CCN(C)CC1)C3=O [compound 57]
5 to 15 | 0.5 to 5 | 5 to 15 | 5 to 15 | 5 to 15 | 0.5 to 5 | < 0.5 |  | Cc1ccc(OCC(O)CNc2ccnc(O)c2-c2nc3cc4c(cc3[nH]2)C(=O)N(CC(C)(C)CN(C)C)C4=O)c(C)c1 (centres unmarked) [compound 62]
0.5 to 5 | 0.5 to 5 | 0.5 to 5 | 0.5 to 5 | 0.5 to 5 | 0.5 to 5 | < 0.5 |  | Cc1ccc(Cl)cc1OC[C@H](O)CNc1ccnc(O)c1-c1nc2cc3c(cc2[nH]1)C(=O)N(C1CCN(C)CC1)C3=O [compound 55]
> 15 | > 15 | 0.5 to 5 | 0.5 to 5 | > 15 | < 0.5 | < 0.5 |  | CN1CCC(N2C(=O)c3cc4nc(-c5c(NC[C@@H](O)COc6cccc7c6OC(F)(F)C(F)O7)cc[nH]c5=O)[nH]c4cc3C2=O)CC1 (some centres unmarked) [compound 83]
> 15 | > 15 | 0.5 to 5 | 0.5 to 5 | > 15 | 5 to 15 | 0.5 to 5 |  | CN1CCC(N2C(=O)c3cc4nc(-c5c(NC[C@@H](O)COc6ccc(C#N)c(Cl)c6)ccnc5O)[nH]c4cc3C2=O)CC1 [compound 77]
> 15 | > 15 | 5 to 15 | 5 to 15 | > 15 | 0.5 to 5 | 0.5 to 5 |  | Cc1ncccc1OC[C@H](O)CNc1ccnc(O)c1-c1nc2cc3c(cc2[nH]1)C(=O)N(C1CCN(C)CC1)C3=O [compound 71]
> 15 | > 15 | > 15 | > 15 | > 15 | > 15 | > 15 |  | CCN(CC)C(=O)c1ccc(OC[C@H](O)CNc2ccnc(O)c2-c2nc3cc4c(cc3[nH]2)C(=O)N(C2CCN(C)CC2)C4=O)c(OC)c1 [compound 51]
> 15 | > 15 | 0.5 to 5 | 0.5 to 5 | > 15 | < 0.5 | < 0.5 |  | Cc1c(Cl)cccc1OC[C@H](O)CNc1cc[nH]c(=O)c1-c1nc2cc3c(cc2[nH]1)C(=O)N(CC1CCN(CCO)CC1)C3=O [compound 119]
> 15 | > 15 | 0.5 to 5 | 5 to 15 | > 15 | 0.5 to 5 | < 0.5 |  | Cc1ccc(OC[C@H](O)CNc2ccnc(O)c2-c2nc3cc4c(cc3[nH]2)C(=O)N(C2CCN(C)CC2)C4=O)c(C)n1 [compound 68]
0.5 to 5 | 0.5 to 5 | 0.5 to 5 | 5 to 15 | > 15 | 0.5 to 5 | 0.5 to 5 |  | CN1CCC(N2C(=O)c3cc4nc(-c5c(NC[C@@H](O)COc6cccc(C(F)(F)F)c6)ccnc5O)[nH]c4cc3C2=O)CC1 [compound 73]
